According to US20260284082A1, “TARGETING THE PANX1-P2Y2R-TRPV4 PATHWAY TO TREAT LUNG ISCHEMIA-REPERFUSION INJURY” (UNIVERSITY OF VIRGINIA PATENT FOUNDATION, priority 2023, published 2026):

Legend:
[1] = test system: TRPV4 channels; conditions: CPA 20 μM as used; cited from earlier work
[2] = test system: eATP efflux through Panx1 channels; assay: Luciferase assay for eATP release from small PAs; format: cell-based, mouse; conditions: GSK101 10 nM
Method: Luciferase assay for total ATP release: Small Pas were cut open and pinned down en face on a Sylgard block. Pas were then placed in black, opaque 96-well plates and incubated in HEPES-PSS for 10 minutes at 37° C., followed by incubation with the ectonucleotidase inhibitor ARL 67156 (300 μmol/L; Tocris Bioscience, Minneapolis, MN) for 30 minutes at 37° C. A 50-μL aliquot of each sample was transferred to another black, opaque 96-well plate, and ATP was measured using an ATP Bioluminescence HSII kit (Roche Applied Science, Penzberg, Germany).^5 Briefly, 50 μL of the luciferase reagent, luciferin, provided in the assay kit (Roche Applied Science), was added to each well and. following a 5-second orbital mix, luminescence was recorded using a luminometer (FluoStar Omega). ATP concentrations were calculated by reference to an ATP standard curve.

[3] = human, in vivo; cited from earlier work
[4] = test system: TRPV4EC channels; assay: TRPV4 sparklet activity in endothelium of small PAs after lung IR (in presence of CPA); format: cell-based, mice; conditions: apyrase 10 U/mL; small PAs after lung IR
Method: Murine lung IR model: A well-established left lung IRI model involving temporary in vivo ligation of the left hilum (pulmonary artery, vein, and airway) was used.^6 Briefly, mice were anesthetized with inhaled isoflurane, intubated, ventilated with room air at 150 strokes/min with a tidal volume of […] (Harvard Apparatus Co, South Natick, MA), and heparinized (20 U/kg: Hospira Inc, Lake Forest, IL). An anterolateral thoracotomy was performed through the fourth intercostal space to expose the left hilum. A 6-0 Prolene suture (Ethicon. Somerville, NJ) was passed around the left hilum, and the suture ends were passed through a 5-mm length of polyethylene (PE)-50 tubing. A surgical clip was used to fashion a Rummel tourniquet to provide temporary occlusion of the left hilar structures. The thoracotomy was closed, anesthesia was weaned, and analgesia was administered (intraperitoneal buprenorphine. 0.2 mg/kg). Animals recovered in their cages during the 1-hour ischemic period, after which they were anesthetized again and intubated, the Rummel tourniquet was removed, and the thoracotomy was closed. Animals were again extubated, recovered in their cage, and monitored during the 2-hour reperfusion period. […]
(§1) Ca^2+ imaging in Pas: Ca^2+ imaging in small Pas was performed as previously described.8 Fourth-order, small (~50 μm diameter) Pas (see FIG. 1B) were dissected from left lungs in cold HEPES-buffered physiological salt solution (HEPES-PSS; 10 mM HEPES, 134 mM NaCl, 6 mM KCl, 1 mM MgCl2 hexahydrate, 2 mM CaCl2) dihydrate, and 7 mM dextrose; pH adjusted to 7.4 using 1 M NaOH). […] Fluo-4 was excited using a 488-nm solid-state laser, and emitted fluorescence was captured using a 525/36-nm band-pass filter. […] Baseline Ca^2+ signaling activity was recorded in the absence of CPA.
TRPV4 sparklets were assessed as increases in fluorescence relative to baseline fluorescence, obtained by averaging 10 quiescent images prior to stimulation. […]

[5] = test system: pulmonary endothelium of small PAs; assay: Baseline endothelial Ca2+ signaling in en face small PAs after lung IR (Fluo-4 confocal imaging); format: cell-based, mice; conditions: apyrase 10 U/mL; small PAs after lung IR
Method: Murine lung IR model: A well-established left lung IRI model involving temporary in vivo ligation of the left hilum (pulmonary artery, vein, and airway) was used.^6 Briefly, mice were anesthetized with inhaled isoflurane, intubated, ventilated with room air at 150 strokes/min with a tidal volume of […] (Harvard Apparatus Co, South Natick, MA), and heparinized (20 U/kg: Hospira Inc, Lake Forest, IL). An anterolateral thoracotomy was performed through the fourth intercostal space to expose the left hilum. A 6-0 Prolene suture (Ethicon. Somerville, NJ) was passed around the left hilum, and the suture ends were passed through a 5-mm length of polyethylene (PE)-50 tubing. A surgical clip was used to fashion a Rummel tourniquet to provide temporary occlusion of the left hilar structures. The thoracotomy was closed, anesthesia was weaned, and analgesia was administered (intraperitoneal buprenorphine. 0.2 mg/kg). Animals recovered in their cages during the 1-hour ischemic period, after which they were anesthetized again and intubated, the Rummel tourniquet was removed, and the thoracotomy was closed. Animals were again extubated, recovered in their cage, and monitored during the 2-hour reperfusion period. Sham animals underwent the same surgical procedure except that application of the Rummel tourniquet to induce ischemia was omitted; thus, these animals were perfused for a total of 3 hours.
as §1, with “CPA. […]” for “CPA.”

CC(=O)C1=C(O)[C@@H]2[C@H]3c4c[nH]c5cccc(c45)C[C@H]3C(C)(C)N2C1=O [CPA, Cyclopiazonic acid]
effect of CPA by itself on activity of TRPV4 channels [1]: does not alter

CC(C)C[C@H](NC(=O)c1cc2ccccc2s1)C(=O)N1CCN(C(=O)[C@H](CO)NS(=O)(=O)c2ccc(Cl)cc2Cl)CC1 [GSK101, GSK1016790A]
eATP efflux through Panx1 channels (eATP release from small PAs) [2]: increased

CC(C)(O)c1cnc(N2C[C@@]3(CCC[C@](C)(Cn4cnc5ccc(C#N)cc54)C3)OC2=O)cn1 [GSK2798745]
tolerability [3]: well tolerated

apyrase
IR-induced increase in TRPV4EC channel activity [4]: abolished | IR-induced increase in baseline Ca2+ signaling activity [5]: abolished
